Source: US20100272675A1, “METHOD OF ADMINISTERING CONJUGATES” (ENDOCYTE, INC., priority 2007, published 2010)

How the values were obtained:
[1] = tested on: 4T1c2 cells (a breast tumor cell line); assay: Effect of ligand conjugates on tumor volume for mice with breast tumor implants; assay type: in vivo
Experimental: Two regimens were tested. In the first regimen, six to eight-week old (˜20-22 grams) female Balb/c mice were immunized with fluorescein isothiocyanate (FITC)-labeled keyhole limpet hemocyanin (KLH; see FIG. 5) at 35 μg/dose using a saponin adjuvant (e.g., GPI-0100; 100 μg/dose) at days 1, 15, and 29. On day 23, each animal was injected with 2.5×10^5 4T1c2 cells (a breast tumor cell line). Cancer loci were then allowed to grow. From days 42-60, all animals were injected daily ((qd×5)3; days 42-46, 49-53, and 56-60) with either phosphate buffered saline (PBS) or 500 nmol/kg of FITC-conjugated to folic acid via a gamma carboxyl-linked ethylene diamine bridge (see FIG. 4). The animals were injected on the same days with 20,000 U/dose of recombinant human IL-2. The animals were injected (TIW)3 with IL-2 in the same weeks as the animals were injected with folate-FITC.
In the second regimen, six to eight-week old (˜20-22 grams) female Balb/c mice were immunized with fluorescein isothiocyanate (FITC)-labeled keyhole limpet hemocyanin (KLH) at 35 μg/dose using a saponin adjuvant (e.g., GPI-0100; 100 μg/dose) at days 1, 15, and 29. On day 5, each animal was injected with 2.5×10^5 4T1c2 cells. Cancer loci were then allowed to grow. From days 8-50, all animals were injected daily ((qd×5)6) with either phosphate buffered saline (PBS) or 500 nmol/kg of FITC-conjugated to folic acid via a gamma carboxyl-linked ethylene diamine bridge. The animals were injected daily on days 32-50 with 20,000 U/dose of recombinant human IL-2. The animals were injected (TIW)3 with IL-2 in the same weeks as the animals were injected with folate-FITC.
The efficacy of this immunotherapy was then evaluated by monitoring tumor volume as a function of time for folate-FITC treated mice compared to control animals.

[2] = Active systemic anaphylaxis assay in guinea pigs immunized against EC90 plus GPI-0100 adjuvant; assay type: in vivo; settings: guinea pigs immunized days 1, 8, 15 with EC90 plus 0.5 mg GPI-0100; de-sensitized days 8-12 and 15-19 with EC17 spiked with 10% (mole) Bis-FITC-eda; s.c. challenge day 22
Experimental: Male and female guinea pigs (1 per sex per group) were immunized three times, on Days 1, 8, and 15, with various doses of EC90 plus 0.5 mg GPI-0100. A single dose of test article (EC17+/− Bis-FITC-eda) was administered (s.c.) on Day 22. Guinea pigs were de-sensitized with multiple doses of EC 17 spiked with 10% (mole) Bis-FITC-eda on Days 8-12, and 15-19. On Day 22, these animals were s.c. challenged with the same EC17/Bis-FITC-eda formulation. Clinical observations were generally taken for 1.5-2 hours post challenge. […] Complete macroscopic postmortem examinations were performed on all animals (FIG. 9).

Nc1nc2ncc(CNc3ccc(C(=O)NC(CCC(=O)NCCNC(=S)Nc4ccc(-c5c6ccc(=O)cc-6oc6cc(O)ccc56)c(C(=O)O)c4)C(=O)O)cc3)nc2c(=O)[nH]1 (stereo not shown) [EC17]
tumor volume as a function of time compared to control animals ([1]; Balb/c mice immunized with KLH-FITC 35 μg/dose + GPI-0100 100 μg/dose, folate-FITC 500 nmol/kg daily plus IL-2 20,000 U/dose, early or late dosing protocol): decreased | effect on tumor volume, early dosing protocol ([1]; folate-FITC 500 nmol/kg daily (qd×5)6 from days 8-50, IL-2 20,000 U/dose days 32-50): effective in decreasing tumor volume | tumor volume, early versus late dosing protocol ([1]; folate-FITC 500 nmol/kg, late: days 42-60, early: days 8-50, plus IL-2): similar | allergenicity (signs of anaphylaxis after s.c. challenge), effect of early dosing [2]: reduces allergenicity
